Columns and labels:
[1] = Solubility of sonidegib phosphate in various media; format: physicochemical
From the text: Solubility of Sonidegib Phosphate in Various Media

[2] = Surface area of sonidegib drug substance; format: physicochemical

Compound | solubility ([1]; acetate buffer, pH 4.5, aqueous buffer) [µg/mL] | solubility ([1]; phosphate buffer, pH 6.8, aqueous buffer) [µg/mL] | solubility ([1]; phosphate buffer, pH 7.4, aqueous buffer) [µg/mL] | solubility ([1]; simulated gastric fluid, 0.01N HCl, pH 2.0) [µg/mL] | solubility ([1]; simulated gastric fluid, 0.1N HCl, pH 1.0) [µg/mL] | solubility ([1]; water) [µg/mL] | surface area [2]
Cc1c(C(=O)Nc2ccc(N3C[C@@H](C)O[C@@H](C)C3)nc2)cccc1-c1ccc(OC(F)(F)F)cc1 [Sonidegib Phosphate] | < 0.2 | < 0.2 | < 0.2 | 18 | 4 | 7 | –
Cc1c(C(=O)Nc2ccc(N3C[C@@H](C)O[C@@H](C)C3)nc2)cccc1-c1ccc(OC(F)(F)F)cc1 [Sonidegib, N-(6-((2R,6S)-2,6-dimethylmorpholino)pyridin-3-yl)-2-methyl-4′-(trifluoromethoxy)-[1,1′-biphenyl]-3-carboxamide] | – | – | – | – | – | – | Sonidegib has a very high surface area (270 m2/g) and a porous structure that leads to poor water solubility.
